Results on 1 compound are retold here after US8604016B2, “Heterocyclic inhibitors of glutaminase” (Calithera Biosciences Inc., priority 2011, dated 2013).

For test [1], the target named is recombinant form of Glutaminase 1 (GAC) (Homo sapiens, UniProt O94925). The test can be described thus: Recombinant Enzyme Assay (GAC coupled to GDH, NADH absorbance, no preincubation). The test is classed as biochemical. As to conditions: no preincubation; read-out: GAC Delta N2 IC50 no preinc. A digest of the protocol: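 GAC (4 nM) in Tris-HCl pH 8.0 with 150 mM K2HPO4, EDTA, BSA, DTT, plus 4 units/ml GDH and 4 mM ADP, without preincubation. Absorbance at 340 nm was read kinetically for 15 min at 20° C. Slopes (mAU/min) were compared with DMSO-only and control-compound wells on the same plate.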

Test [2] concerns HCT116 colon carcinoma xenograft. The test can be described thus: Xenograft Efficacy Studies (HCT116 colon carcinoma xenograft). It counts as in vivo, scid/bg mice. The note with it: intraperitoneal administration twice daily to mice, FIG. 1. The procedure: Certain compounds were assayed for in vivo efficacy in xenograft models as follows.
Female scid/bg mice, approximately 6 weeks of age, were implanted subcutaneously on the right flank with 5×10^6 HCT116 cells per mouse in a volume of 100 uL of sterile PBS. When tumors reached a volume of 50-100 mm^3, mice were randomized to groups of n=10 to receive either vehicle or test compound delivered twice daily by intraperitoneal injection. Tumors were measured three times per week using Vernier calipers and tumor volume calculated using the formula: Volume=(Length×Width^2/2), where length and width are the longest perpendicular sides of the tumor. Dosing continued twice daily until control tumors reached a size of 2000 mm^3. Statistical comparisons were made using a 2-way ANOVA with Bonferroni post-test.

Consider `O=C(CCN1CCOCC1)OCC(C(=O)Nc1nnc(CCCCc2nnc(NC(=O)C(COC(=O)CCN3CCOCC3)c3ccccc3)s2)s1)c1ccccc1` (centres unmarked) [Compound 188, {[5,5′-(butane-1,4-diyl)-bis(1,3,4-thiadiazole-5,2-diyl)]-bis(azanediyl)}-bis(3-oxo-2-phenylpropane-3,1-diyl)-bis(3-morpholinopropanoate)], for which the IC50 in test [1] came out at 2000 nM. Moreover, the tumor size result in test [2] is “reduced tumor size”.
